The conditions of data set [1]: cited from earlier work; for Maximum tolerated dose: in vivo.
Another data set has as its target COX-1 (UniProt P23219). The experiment in a line: Fast assay for COX-1 activity (PGE2 ELISA). The conditions noted are these: read-out: COX-1* IC50, recombinant COX-1, PGE2 ELISA, 10 min pre-incubation at 25° C.

Consider 15 molecules from patent US20020103141A1, “Antiangiogenic combination therapy for the treatment of cancer” (priority 1998, published 2002).

Bounds are passed on as bounds.

By melting point is commonly meant the temperature, or range, at which the solid turns liquid. What is called IC50 is the concentration at which inhibition is half-maximal.

Experimental for COX-1: The homogenate was centrifuged at 10,000×G for 30 minutes, and the resultant supernatant was stored at −80° C. before being assayed for COX activity.
COX activity was assayed as PGE2 formed/μg protein/time using an ELISA to detect the prostaglandin released. CHAPS-solubilized insect cell membranes containing the appropriate COX enzyme were incubated in a potassium phosphate buffer (0.05 M Potassium phosphate, pH 7.5, 2 μM phenol, 1 μM heme, 300 μM epinephrine) with the addition of 20 μl of 100 μM arachidonic acid (10 μM). […] The PGE2 formed was measured by standard ELISA technology (Cayman Chemical).

As to `CC[C@@]1(O)C(=O)OCc2c1cc1n(c2=O)Cc2cc3c(N)cccc3nc2-1` [9-aminocamptothecin, 1H-Pyrano[3′,4′:6,7]indolizino[1,2-b]quinoline-3,14(4H,12H)-dione, 10-amino-4-ethyl-4-hydroxy-, (S)-], the Maximum tolerated dose result in data set [1] was “dose = 45 mug/square metre/hr”.

`CSc1ccc2c(c1)C=C(C(=O)O)C(C(F)(F)F)O2` (stereo not drawn) [Example 2, 6-(Methylthio)-2-(trifluoromethyl)-2H-1-benzopyran-3-carboxylic acid] yielded a melting point of 166.3 to 167.9 °C.

The molecule `O=C(O)C1=Cc2cc(Cl)ccc2O[C@@H]1C(F)(F)F` [Example 2, (S)-6-Chloro-2-trifluoromethyl-2H-1-benzopyran-3-carboxylic acid] registered a melting point of 126.7 to 128.9 °C.

`O=C(O)C1=Cc2cc(OC(F)(F)F)ccc2OC1C(F)(F)F` (stereo not drawn) [Example 5, 6-Trifluoromethoxy-2-trifluoromethyl-2H-1-benzopyran-3-carboxylic acid]: the IC50 at COX-1 came out at 18.8 µM.

In turn, `O=Cc1ccc2c(c1)C=C(C(=O)O)C(C(F)(F)F)O2` (stereo not drawn) [Example 7, 6-Formyl-2-(trifluoromethyl)-2H-1-benzopyran-3-carboxylic acid] returned a melting point of 211.3 to 215.7 °C. Moreover, the 50% inhibitory concentration (IC50) at COX-1 is greater than 500 µM.

Take `O=C(O)C1=Cc2cc(C(F)F)ccc2OC1C(F)(F)F` (stereo not drawn) [Example 8, 6-(Difluoromethyl)-2-(trifluoromethyl)-2H-1-benzopyran-3-carboxylic acid]: the melting point lay within 134.7 to 136.2 °C.

In turn, `O=C(O)C1=Cc2cc(Cl)c(Cl)cc2OC1C(F)(F)F` (stereo not drawn) [Example 16, 6,7-Dichloro-2-trifluoromethyl-2H-1-benzopyran-3-carboxylic acid] had a melting point of 196.1 to 198.3 °C. Also, the IC50 on COX-1 worked out at 94.6 µM.

On to `O=C(O)C1=Cc2c(ccc(Cl)c2Cl)OC1C(F)(F)F` (stereo not drawn) [Example 17, 5,6-Dichloro-2-(trifluoromethyl)-2H-1-benzopyran-3-carboxylic acid], for which the melting point was in the range of 211.5 to 213.5 °C.

`O=C(O)C1=Cc2cc(C(F)(F)F)ccc2OC1C(F)(F)F` (stereo not drawn) [Example 18, 2,6-Bis(trifluoromethyl)-2H-1-benzopyran-3-carboxylic acid] showed a melting point of 143.5 to 145.2 °C.

In turn, `O=C(O)C1=Cc2c(cc(Cl)c(Cl)c2Cl)OC1C(F)(F)F` (stereo not drawn) [Example 19, 5,6,7-Trichloro-2-(trifluoromethyl)-2H-1-benzopyran-3-carboxylic acid] came in with a melting point of 236.2 to 239.3 °C.

`O=C(O)C1=Cc2cc(Cl)c(Cl)c(Cl)c2OC1C(F)(F)F` (stereo not drawn) [Example 20, 6,7,8-Trichloro-2-(trifluoromethyl)-2H-1-benzopyran-3-carboxylic acid]: the melting point lay in the range of 222 to 225.3 °C.

Consider `Cc1cc2c(cc1Cl)C=C(C(=O)O)C(C(F)(F)F)S2` (stereo not drawn) [Example 23, 6-Chloro-7-methyl-2-(trifluoromethyl)-2H-1-benzothiopyran-3-carboxylic acid], for which the melting point was 240.5 to 241.7 °C. Also, at COX-1, the IC50 came out at 365 µM.

Regarding `O=C(O)C1=Cc2cc(Cl)cc(Cl)c2SC1C(F)(F)F` (stereo not drawn) [Example 24, 6,8-Dichloro-2-trifluoromethyl-2H-1-benzothiopyran-3-carboxylic acid], at COX-1, the IC50 amounted to 0.2 µM.

With `O=C1c2c(c3c4ccc(O)cc4n([C@@H]4O[C@H](CO)[C@@H](O)[C@H](O)[C@H]4O)c3c3[nH]c4cc(O)ccc4c23)C(=O)N1NC(CO)CO` [J 107088, 5H-Indolo[2,3-a]pyrrolo[3,4-c]carbazole-5,7(6H)-dione, 12-β-D-glucopyranosyl-12,13-dihydro-2,10-dihydroxy-6-[[2-hydroxy-1-(hydroxymethyl)ethyl]amino]-], the Maximum tolerated dose in data set [1] is reported as 7.5 mg/m2.

As to `CC[C@@]1(O)C(=O)OCc2c1cc1n(c2=O)Cc2cc3c(CN(C)C)c(O)ccc3nc2-1` [Topotecan, 1H-Pyrano[3′,4′:6,7]indolizino[1,2-b]quinoline-3,14(4,H,12H)-dione, 10-[(dimethylamino)methyl]-4-ethyl-4,9-dihydroxy-, (S)-], the Maximally tolerated dose result in data set [1] (× 5 d every 3 to 4 wk) is reported as “dose: 1.5 mg/m^2”.
